In patent US20250221988A1 (Cullgen (Shanghai), Inc., priority 2022, published 2025):
Read-outs that look alike come from different tables or passages of the source.

Columns and labels:
MV4;11 cells = assay: Cell viability assay (CellTiter-Glo) in MV4;11 cells; assay type: cell-based; conditions: read-out: MV4
Method in brief: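 5000 cells/well in RPMI 1640 or DMEM with 10% FBS, treated with 8- or 12-point 3-fold compound dilutions, with or without gilteritinib (10 nM for MV4;11, 20 nM for MOLM-13). Viability by CellTiter-Glo after three days; IC50 by nonlinear least-squares regression.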

MOLM-13 cells = assay: Cell viability assay (CellTiter-Glo) in MOLM-13 cells; assay type: cell-based
[1] = Homo sapiens, MV4-11, 72 h, 11 IC50 (nM)
[2] = 11 IC50 (nM) + 10 nM Gil, MV4;11 cells, with 10 nM gilteritinib, three days
[3] = Homo sapiens, MOLM-13, 72 h, read-out: MOLM-13 IC50 (nM)
[4] = read-out: MOLM-13 IC50 (nM) + 10 nM Gil, MOLM-13 cells, with gilteritinib, three days
[5] = Homo sapiens, MV4-11, 72 h, MV4;11 cells, compound alone, three days, 11 IC50
[6] = MV4;11 cells, with 10 nM gilteritinib, three days, 11 IC50 (nM) + 10 nM Gil
[7] = Homo sapiens, 72 h, MOLM-13 cells, compound alone, three days, read-out: MOLM-13 IC50
[8] = MOLM-13 cells, with gilteritinib, three days, read-out: MOLM-13 IC50 (nM) + 10 nM Gil

SMILES	IC50 (MV4;11 cells; [5]) [nM]	IC50 (MV4;11 cells; [6]) [nM]	IC50 (MOLM-13 cells; [7]) [nM]	IC50 (MOLM-13 cells; [8]) [nM]	further results
O=C1CCC(N2C(=O)c3ccc(NC[C@H]4C[C@H](n5cc(-n6ncc7ccccc76)c(C6CC6)n5)C4)cc3C2=O)C(=O)N1 (stereo partly drawn) [GS-736, 5-(((Trans-3-(3-cyclopropyl-4-(1H-indazol-1-yl)-1H-pyrazol-1-yl)cyclobutyl)methyl)amino)-2-(2,6-dioxopiperidin-3-yl)isoindoline-1,3-dione]					IC50 (MV4;11 cells; [1]): < 10 nM; IC50 (MV4;11 cells; [2]): < 10 nM; IC50 (MOLM-13 cells; [3]): 10 to 100 nM; IC50 (MOLM-13 cells; [4]): < 10 nM
CN(C)c1nc(-c2cn([C@H]3C[C@H](CNc4ccc5c(c4)C(=O)N(C4CCC(=O)NC4=O)C5=O)C3)nc2C2CC2)ccc1F (stereo partly drawn) [GS-707, 5-(((Trans-3-(3-cyclopropyl-4-(6-(dimethylamino)-5-fluoropyridin-2-yl)-1H-pyrazol-1-yl)cyclobutyl)methyl)amino)-2-(2,6-dioxopiperidin-3-yl)isoindoline-1,3-dione]					IC50 (MV4;11 cells; [1]): 10 to 100 nM; IC50 (MV4;11 cells; [2]): < 10 nM; IC50 (MOLM-13 cells; [3]): 10 to 100 nM; sensitization of AML cells to GSPT1 degraders by FLT3 inhibition (MOLM-13 cells; MOLM-13 cells, with or without 20 nM gilteritinib, 3 days): FLT3 inhibition sensitizes AML cells; IC50 (MOLM-13 cells; [4]): 10 to 100 nM
Cc1nc(-c2cn(C3CC(O)(CNc4ccc5c(c4)C(=O)N(C4CCC(=O)NC4=O)C5=O)C3)nc2C2CC2)ccc1F (stereo not drawn) [GS-760, 5-(((trans-3-(3-cyclopropyl-4-(5-fluoro-6-methylpyridin-2-yl)-1H-pyrazol-1-yl)-1-hydroxycyclobutyl)methyl)amino)-2-(2,6-dioxopiperidin-3-yl)isoindoline-1,3-dione]					IC50 (MV4;11 cells; MV4;11 cells, compound alone, three days, 11 IC50): > 1000 nM; IC50 (MOLM-13 cells; MOLM-13 cells, compound alone, three days, read-out: MOLM-13 IC50): > 1000 nM
O=C1CCC(N2C(=O)c3ccc(NC[C@H]4C[C@H](n5cc(NC6CCC(O)CC6)c(C6CC6)n5)C4)cc3C2=O)C(=O)N1 (stereo partly drawn) [GS-709, 5-(((Trans-3-(3-cyclopropyl-4-((4-hydroxycyclohexyl)amino)-1H-pyrazol-1-yl)cyclobutyl)methyl)amino)-2-(2,6-dioxopiperidin-3-yl)isoindoline-1,3-dione]	> 1000		> 1000		
Cc1c2ccccc2nn1[C@H]1C[C@H](CNc2ccc3c(c2)C(=O)N(C2CCC(=O)NC2=O)C3=O)C1 (stereo partly drawn) [GS-688, 2-(2,6-Dioxopiperidin-3-yl)-5-(((trans-3-(3-methyl-2H-indazol-2-yl)cyclobutyl)methyl)amino)isoindoline-1,3-dione]	> 1000		> 1000	100 to 1000	
CC(C)n1ncc2ccnc(-c3cn([C@H]4C[C@H](CNc5ccc6c(c5)C(=O)N(C5CCC(=O)NC5=O)C6=O)C4)nc3C3CC3)c21 (stereo partly drawn) [GS-661, 5-(((Trans-3-(3-cyclopropyl-4-(1-isopropyl-1H-pyrazolo[3,4-c]pyridin-7-yl)-1H-pyrazol-1-yl)cyclobutyl)methyl)amino)-2-(2,6-dioxopiperidin-3-yl)isoindoline-1,3-dion]					IC50 (MV4;11 cells; [1]): 10 to 100 nM; IC50 (MV4;11 cells; [2]): < 10 nM; IC50 (MOLM-13 cells; [3]): 10 to 100 nM; IC50 (MOLM-13 cells; [4]): < 10 nM
O=C1CCC(N2C(=O)c3ccc(NC[C@H]4C[C@H](n5nc(C6CC6)c6c(N7CCNCC7)cccc65)C4)cc3C2=O)C(=O)N1 (stereo partly drawn) [GS-757, 5-(((Trans-3-(3-cyclopropyl-4-(piperazin-1-yl)-1H-indazol-1-yl)cyclobutyl)methyl)amino)-2-(2,6-dioxopiperidin-3-yl)isoindoline-1,3-dione]	> 1000		> 1000		
Cc1nc(-c2cn([C@H]3C[C@H](CNc4cc5c(cc4F)C(=O)N(C4CCC(=O)NC4=O)C5=O)C3)nc2C2CC2)ccc1F (some centres unmarked) [GS-716]	> 1000		> 1000		
Cc1cccc2cn([C@H]3C[C@H](CNc4ccc5c(c4)C(=O)N(C4CCC(=O)NC4=O)C5=O)C3)nc12 (stereo partly drawn) [GS-694, 2-(2,6-Dioxopiperidin-3-yl)-5-(((trans-3-(7-methyl-2H-indazol-2-yl)cyclobutyl)methyl)amino)isoindoline-1,3-dione]	> 1000	100 to 1000	> 1000	100 to 1000	
O=C1CCC(N2C(=O)c3ccc(NC[C@H]4C[C@H](n5nc(C6CC6)c6cc(N7CCNCC7)ccc65)C4)cc3C2=O)C(=O)N1 (stereo partly drawn) [GS-740, 5-(((Trans-3-(3-cyclopropyl-5-(piperazin-1-yl)-1H-indazol-1-yl)cyclobutyl)methyl)amino)-2-(2,6-dioxopiperidin-3-yl)isoindoline-1,3-dione]	> 1000		> 1000	100 to 1000	

Second part, led by results:

IC50 (MV4;11 cells; [5]) [nM]	IC50 (MV4;11 cells; [6]) [nM]	IC50 (MOLM-13 cells; [7]) [nM]	IC50 (MOLM-13 cells; [8]) [nM]	SMILES	further results
10 to 100	< 10	10 to 100	< 10	O=C1CCC(N2C(=O)c3ccc(NC[C@H]4C[C@H](n5cc(-c6cc7c(cn6)cnn7CC(F)(F)F)c(C6CC6)n5)C4)cc3C2=O)C(=O)N1 (relative stereo) [GS-704, 5-(((Trans-3-(3-cyclopropyl-4-(1-(2,2,2-trifluoroethyl)-1H-pyrazolo[4,3-c]pyridin-6-yl)-1H-pyrazol-1-yl)cyclobutyl)methyl)amino)-2-(2,6-dioxopiperidin-3-yl)isoindoline-1,3-dione]	
> 1000	10 to 100	100 to 1000	100 to 1000	O=C1CCC(N2C(=O)c3ccc(NC[C@H]4C[C@H](n5cc(-c6ccccc6C6CCNCC6)c(C6CC6)n5)C4)cc3C2=O)C(=O)N1 (stereo partly drawn) [GS-654, 5-(((Trans-3-(3-cyclopropyl-4-(2-(piperidin-4-yl)phenyl)-1H-pyrazol-1-yl)cyclobutyl)methyl)amino)-2-(2,6-dioxopiperidin-3-yl)isoindoline-1,3-dione]	
100 to 1000	10 to 100	100 to 1000	10 to 100	CC(C)n1ncc2nc(-c3cn([C@H]4C[C@H](CNc5ccc6c(c5)C(=O)N(C5CCC(=O)NC5=O)C6=O)C4)nc3C3CC3)ccc21 (stereo partly drawn) [GS-700, 5-(((Trans-3-(3-cyclopropyl-4-(1-isopropyl-1H-pyrazolo[4,3-b]pyridin-5-yl)-1H-pyrazol-1-yl)cyclobutyl)methyl)amino)-2-(2,6-dioxopiperidin-3-yl)isoindoline-1,3-dione]	
100 to 1000	10 to 100	100 to 1000	100 to 1000	Cn1nccc1Nc1cn([C@H]2C[C@H](CNc3ccc4c(c3)C(=O)N(C3CCC(=O)NC3=O)C4=O)C2)nc1C1CC1 (stereo partly drawn) [GS-784, 5-(((Trans-3-(3-cyclopropyl-4-((1-methyl-1H-pyrazol-5-yl)amino)-1H-pyrazol-1-yl)cyclobutyl)methyl)amino)-2-(2,6-dioxopiperidin-3-yl)isoindoline-1,3-dione]	
10 to 100	10 to 100	100 to 1000	10 to 100	Cc1cccc(-c2nn([C@H]3C[C@H](CNc4ccc5c(c4)C(=O)N(C4CCC(=O)NC4=O)C5=O)C3)cc2C2CC2)n1 (stereo partly drawn) [GS-713, 5-(((Trans-3-(4-cyclopropyl-3-(6-methylpyridin-2-yl)-1H-pyrazol-1-yl)cyclobutyl)methyl)amino)-2-(2,6-dioxopiperidin-3-yl)isoindoline-1,3-dione]	
10 to 100	< 10	10 to 100	< 10	CN1CC(c2ccc3nc(-c4cn([C@H]5C[C@H](CNc6ccc7c(c6)C(=O)N(C6CCC(=O)NC6=O)C7=O)C5)nc4C4CC4)cnc3c2)C1 (stereo partly drawn) [GS-755, 5-(((Trans-3-(3-cyclopropyl-4-(6-(1-methylazetidin-3-yl)quinoxalin-2-yl)-1H-pyrazol-1-yl)cyclobutyl)methyl)amino)-2-(2,6-dioxopiperidin-3-yl)isoindoline-1,3-dione]	
100 to 1000	10 to 100	> 1000	100 to 1000	CN1CC(c2ccc3ncc(-c4cn([C@H]5C[C@H](CNc6ccc7c(c6)C(=O)N(C6CCC(=O)NC6=O)C7=O)C5)nc4C4CC4)nc3c2)C1 (stereo partly drawn) [GS-655, 5-(((Trans-3-(3-cyclopropyl-4-(7-(1-methylazetidin-3-yl)quinoxalin-2-yl)-1H-pyrazol-1-yl)cyclobutyl)methyl)amino)-2-(2,6-dioxopiperidin-3-yl)isoindoline-1,3-dione]	
< 10	< 10	10 to 100	< 10	Cn1cc(Nc2cn([C@H]3C[C@H](CNc4ccc5c(c4)C(=O)N(C4CCC(=O)NC4=O)C5=O)C3)nc2C2CC2)cn1 (stereo partly drawn) [GS-773, 5-(((Trans-3-(3-cyclopropyl-4-((1-methyl-1H-pyrazol-4-yl)amino)-1H-pyrazol-1-yl)cyclobutyl)methyl)amino)-2-(2,6-dioxopiperidin-3-yl)isoindoline-1,3-dione]	
< 10	< 10	< 10	< 10	O=C1CCC(N2C(=O)c3ccc(NC[C@H]4C[C@H](n5cc(-c6ncc(F)c7[nH]ccc67)c(C6CC6)n5)C4)cc3C2=O)C(=O)N1 (stereo partly drawn) [GS-733, 5-(((Trans-3-(3-cyclopropyl-4-(7-fluoro-1H-pyrrolo[3,2-c]pyridin-4-yl)-1H-pyrazol-1-yl)cyclobutyl)methyl)amino)-2-(2,6-dioxopiperidin-3-yl)isoindoline-1,3-dione]	
10 to 100	10 to 100	100 to 1000	10 to 100	O=C1CCC(N2C(=O)c3ccc(NC[C@H]4C[C@H](n5cc(C6CCCC(O)C6)c(C6CC6)n5)C4)cc3C2=O)C(=O)N1 (stereo partly drawn) [GS-703, 5-(((Trans-3-(3-cyclopropyl-4-(3-hydroxycyclohexyl)-1H-pyrazol-1-yl)cyclobutyl)methyl)amino)-2-(2,6-dioxopiperidin-3-yl)isoindoline-1,3-dione]	
